{"source": "paper PMC3392958", "about": "“Assay Format as a Critical Success Factor for Identification of Novel Inhibitor Chemotypes of Tissue-Nonspecific Alkaline Phosphatase from High-Throughput Screening” (Molecules, 2010)", "key": {"[1]": {"biological_target": "T1, TNAP (Homo sapiens, UniProt P05186)", "T1 construct": "made in house; host or cells: COS-1 cells, transient expression; dialyzed serum-free conditioned medium", "T1 sequence (P05186 18-501 limits assumed)": "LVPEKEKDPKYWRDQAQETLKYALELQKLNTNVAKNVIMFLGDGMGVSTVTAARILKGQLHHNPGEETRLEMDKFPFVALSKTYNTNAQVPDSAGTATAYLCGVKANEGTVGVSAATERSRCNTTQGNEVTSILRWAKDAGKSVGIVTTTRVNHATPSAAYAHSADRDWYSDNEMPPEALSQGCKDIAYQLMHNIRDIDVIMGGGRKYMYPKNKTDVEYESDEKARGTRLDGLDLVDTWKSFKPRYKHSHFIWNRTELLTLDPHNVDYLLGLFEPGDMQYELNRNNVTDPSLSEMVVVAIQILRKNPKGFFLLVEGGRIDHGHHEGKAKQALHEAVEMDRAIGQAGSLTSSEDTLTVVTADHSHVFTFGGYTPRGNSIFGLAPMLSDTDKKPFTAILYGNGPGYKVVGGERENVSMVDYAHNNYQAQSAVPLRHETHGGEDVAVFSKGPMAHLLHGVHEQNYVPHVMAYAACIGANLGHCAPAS", "assay": "TNAP colorimetric assay (pNPP substrate, OD405, 1M DEA)", "type": "biochemical", "settings": "unit not given in Table 8; n=6; read-out: TNAP-Color", "method": "The colorimetric TNAP assay was performed as previously described with slight modifications."}, "[2]": {"biological_target": "T1, TNAP", "assay": "TNAP luminescent assay (CDP-star substrate, 100 mM DEA)", "type": "biochemical", "method": "(§1) Development of the novel luminescent TNAP assay using CDP-star substrate and detailed protocol of its application for HTS is described in more detail elsewhere. […] Briefly, the assay was 50 μM CDP-star substrate in assay buffer containing 100 mM DEA-HCl (pH 9.8), 1 mM MgCl2, and 20 μM ZnCl2. The luminescence signal was measured after a 30-min incubation at room temperature on an EnVision plate reader (PerkinElmer, Waltham, MA). […] Detailed protocols can be found in the respective AIDs, however, the final buffer conditions were 100 mM DEA, pH 9.8, 1.0 mM MgCl2, 0.02 mM ZnCl2 for both PLAP and IAP."}, "[3]": {"biological_target": "T2, human PLAP (Homo sapiens, UniProt P05187)", "T2 construct": "made in house; host or cells: COS-1 cells, transient expression; dialyzed serum-free conditioned medium", "T2 sequence (P05187 23-506 limits assumed)": "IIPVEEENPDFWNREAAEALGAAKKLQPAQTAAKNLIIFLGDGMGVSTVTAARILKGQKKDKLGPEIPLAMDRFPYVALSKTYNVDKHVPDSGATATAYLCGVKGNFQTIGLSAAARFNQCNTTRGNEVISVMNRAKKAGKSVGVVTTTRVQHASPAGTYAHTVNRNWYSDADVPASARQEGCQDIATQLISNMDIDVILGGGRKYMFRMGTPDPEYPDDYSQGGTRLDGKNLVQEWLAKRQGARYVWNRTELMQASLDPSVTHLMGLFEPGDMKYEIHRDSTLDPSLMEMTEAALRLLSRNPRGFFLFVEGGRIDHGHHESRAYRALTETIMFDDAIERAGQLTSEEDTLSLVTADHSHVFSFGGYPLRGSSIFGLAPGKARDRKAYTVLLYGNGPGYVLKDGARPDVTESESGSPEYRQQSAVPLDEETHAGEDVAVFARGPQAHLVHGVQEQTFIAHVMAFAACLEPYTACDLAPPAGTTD", "assay": "PLAP luminescent assay (CDP-star)", "type": "biochemical", "method": "(§2) Selectivity of Primary Actives Against other Phosphatases: To assess the selectivity of compounds across the alkaline phosphatase family, luminescent assays were developed for human PLAP and human IAP with the same CDP-Star reagent.\nas §1"}, "[4]": {"biological_target": "T3, IAP (Homo sapiens, UniProt P09923)", "T3 construct": "made in house; host or cells: COS-1 cells, transient expression; dialyzed serum-free conditioned medium", "T3 sequence (P09923 20-503 limits assumed)": "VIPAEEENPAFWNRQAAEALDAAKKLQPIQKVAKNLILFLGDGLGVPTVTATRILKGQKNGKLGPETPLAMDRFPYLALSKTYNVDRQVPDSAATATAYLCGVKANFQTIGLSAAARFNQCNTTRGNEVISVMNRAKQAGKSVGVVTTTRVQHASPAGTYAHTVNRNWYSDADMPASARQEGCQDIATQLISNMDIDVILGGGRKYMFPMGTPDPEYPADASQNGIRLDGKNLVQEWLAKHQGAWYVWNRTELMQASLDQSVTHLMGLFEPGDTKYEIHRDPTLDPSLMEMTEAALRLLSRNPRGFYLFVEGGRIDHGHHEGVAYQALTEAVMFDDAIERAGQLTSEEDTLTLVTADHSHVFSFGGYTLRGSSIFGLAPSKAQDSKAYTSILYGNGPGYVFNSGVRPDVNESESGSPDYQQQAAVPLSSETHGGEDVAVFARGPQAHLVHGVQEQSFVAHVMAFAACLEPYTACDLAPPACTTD", "assay": "IAP luminescent assay (CDP-star)", "type": "biochemical", "method": "as §2, §1"}, "[5]": {"biological_target": "T3, IAP", "assay": "IAP colorimetric assay (pNPP)", "type": "biochemical", "settings": "unit not given in Table 8; n=7; read-out: IAP-Color", "method": "(§3) An additional sub-micromolar IAP assay using p-nitrophenol phosphate (pNPP) as substrate was developed at the CPCCG and was utilized for hit confirmation. Lead compounds were tested in a panel of assays consisting of: (1) TNAP luminescent assay (substrate: CDP-star); (2) TNAP colorimetric assay (substrate: pNPP); (3) PLAP luminescent assay (substrate: CDP-star); (4) IAP luminescent assay (substrate: CDP-star); (5) IAP colorimetric assay (substrate: pNPP); (6) solubility and (7) glyceraldehyde-3-phosphate dehydrogenase (GAPDH) assay. The latter two assays are designed to identify compounds that are likely to interfere with the assay components and would appear as non-specific inhibitors. Our approach to exploring the SAR for the IAP inhibitor series is shown graphically in Figure 8."}, "[6]": {"assay": "Solubility in aqueous solutions", "type": "physicochemical", "settings": "read-out: concentrations at which compound is soluble", "method": "as §3\nThe National Institutes of Health (NIH) Molecular Libraries Small Molecule Repository (MLSMR, http://www.mli.nih.gov/mlsmr) supplied the compound library. […] MLSMR compounds are acquired from commercial and in part from academic and government sources and are selected based on the following criteria: samples are available for resupply in 10-mg quantity, are at least 90% pure, have acceptable physicochemical properties, and contain no functional groups or moieties that are known to generate artifacts in HTS (http://mlsmr.glpg.com/). […]"}, "[7]": {"biological_target": "GAPDH (Homo sapiens, UniProt P04406)", "sequence (P04406 whole entry, species assumed)": "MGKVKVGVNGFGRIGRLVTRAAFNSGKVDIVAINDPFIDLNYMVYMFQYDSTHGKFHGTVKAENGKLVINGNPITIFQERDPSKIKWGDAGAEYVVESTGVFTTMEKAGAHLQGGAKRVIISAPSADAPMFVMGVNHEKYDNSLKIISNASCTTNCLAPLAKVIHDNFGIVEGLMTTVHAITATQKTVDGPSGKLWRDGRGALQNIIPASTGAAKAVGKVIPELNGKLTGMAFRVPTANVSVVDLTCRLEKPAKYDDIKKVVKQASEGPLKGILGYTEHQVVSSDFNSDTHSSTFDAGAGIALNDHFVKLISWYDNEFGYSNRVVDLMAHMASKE", "assay": "Glyceraldehyde-3-phosphate dehydrogenase (GAPDH) assay", "type": "biochemical", "method": "as §3\nThe National Institutes of Health (NIH) Molecular Libraries Small Molecule Repository (MLSMR, http://www.mli.nih.gov/mlsmr) supplied the compound library. The MLSMR, funded by the NIH, is responsible for the selection of small molecules for HTS screening, their purchase and quality control (QC) analysis, library maintenance, and distribution within the NIH Molecular Libraries Screening Center Network (MLSCN, http://www.mli.nih.gov/mlscn). Both MLSMR and MLSCN are parts of the Molecular Libraries Initiatives (MLI, http://nihroadmap.nih.gov/molecularlibraries) under the NIH Roadmap Initiatives (www.nihroadmap.nih.gov). MLSMR compounds are acquired from commercial and in part from academic and government sources and are selected based on the following criteria: samples are available for resupply in 10-mg quantity, are at least 90% pure, have acceptable physicochemical properties, and contain no functional groups or moieties that are known to generate artifacts in HTS (http://mlsmr.glpg.com/). Compounds are selected to represent diversified chemical space with clusters of closely related analogs around them to aid in the HTS-based structure-activity relationship (SAR) analysis. […]"}, "[8]": {"set-up": "method as in PubChem", "settings": "assays deposited in PubChem; ref PubChem; cited from earlier work"}, "[9]": {"test_system": "CYP2C19", "set-up": "method as in PubChem", "settings": "@ 5 µM; ref PubChem; cited from earlier work"}, "[10]": {"test_system": "CYP2C9", "set-up": "method as in PubChem", "settings": "@ 5 µM; ref PubChem; cited from earlier work"}, "[11]": {"assay": "Stability in rat liver microsomes (RLM)", "type": "in vitro ADME", "settings": "20-minute incubation"}, "[12]": {"test_system": "primary calvarial osteoblast cultures", "assay": "Calcification in primary calvarial osteoblast cultures", "type": "cell-based, mouse", "settings": "30 µM, osteoblasts of WT mice cultured 19 days", "method": "Figure 5 Suppression of calcification by CID-2931238 in primary calvarial osteoblast cultures. Osteoblasts from calvaria bones of WT mice were cultured for 19 days. Media supplemented with 50 µg/mL ascorbic acid and 10 mM β-glycerophosphate were renewed every second or third day (total seven medium changes). The concentration of each compound was maintained at 30 µM. RAU = relative absorbance units."}, "[13]": {"biological_target": "T1, TNAP", "set-up": "method as in PMID 17638573", "settings": "existing inhibitors of TNAP; read-out: TNAP- Color Ki; cited from earlier work"}}, "note": "Where two headings read alike, the source gives them in different places.", "data": [{"smiles": "O=C1C2CC=CCC2C(=O)N1c1nc(-c2ccccc2)n[nH]1", "note": "(stereo not shown) [CID-2946732]", "values": [{"measurement": "IC50", "setting": "[1]", "result": "> 100000", "unit": "nM"}, {"measurement": "IC50", "setting": "[2]; phtalimide triazole series, read-out: IC50 TNAP- Lumi", "result": 800, "unit": "nM"}, {"measurement": "IC50", "setting": "[2]; unit not given in Table 8, n=7, read-out: TNAP-Lumi", "result": 795, "unit": "nM"}, {"measurement": "IC50", "setting": "[3]; unit not given in Table 8, n=3, read-out: PLAP-Lumi", "result": 4810, "unit": "nM"}, {"measurement": "mode of IAP inhibition versus the CDP-star substrate", "setting": "[4]", "result": "non-competitive"}, {"measurement": "potency relative to all other existing small-molecule inhibitors of IAP", "setting": "[4]", "result": "> 6,500 fold"}, {"measurement": "selectivity for IAP over TNAP", "setting": "[4]", "result": 7, "unit": "fold"}, {"measurement": "IC50", "setting": "[4]; phtalimide triazole series, read-out: IC50 IAP-Lumi", "result": 120, "unit": "nM"}, {"measurement": "IC50", "setting": "[4]; unit not printed in Table 8 ([…]), n=7, read-out: IAP-Lumi", "result": 122, "unit": "nM"}, {"measurement": "IC50", "setting": "[5]", "result": 1380, "unit": "nM"}, {"measurement": "solubility", "setting": "[6]", "result": "< 25", "unit": "µM"}, {"measurement": "effect on GAPDH activity", "setting": "[7]", "result": "no effect"}, {"measurement": "cytotoxicity", "setting": "[8]", "result": "no cytotoxicity"}, {"measurement": "2C19", "setting": "[9]", "result": 79.6, "unit": "% I @"}, {"measurement": "2C9", "setting": "[10]", "result": 92.5, "unit": "% I @"}]}, {"smiles": "COc1ccc(OC)c(S(=O)(=O)Nc2cnc3ccccc3c2)c1", "note": "[MLS-0038949]", "values": [{"measurement": "inhibition of PLAP", "setting": "[3]; at or below 100 µM", "result": "did not show any inhibition"}, {"measurement": "IC50", "setting": "[3]; read-out: Selectivity Panel IC50 PLAP", "result": "> 100000", "unit": "nM"}, {"measurement": "inhibition of IAP", "setting": "[4]; at or below 100 µM", "result": "did not show any inhibition"}, {"measurement": "IC50", "setting": "[4]; read-out: Selectivity Panel IC50 IAP", "result": "> 100000", "unit": "nM"}, {"measurement": "solubility", "setting": "[6]", "result": "< 25", "unit": "µM"}, {"measurement": "effect on GAPDH activity", "setting": "[7]", "result": "no effect"}, {"measurement": "compound remaining in rat liver microsomes", "setting": "[11]", "result": "virtually all-of-the compound remained"}, {"measurement": "inhibition of mineralization", "setting": "[12]", "result": "completely inhibited mineralization"}, {"measurement": "cytotoxicity", "setting": "[8]", "result": "no cytotoxicity"}]}, {"smiles": "O=C(NCCO)c1cc(-c2ccc(Cl)c(Cl)c2Cl)n[nH]1", "note": "[MLS-0146291]", "values": [{"measurement": "selectivity index against the closest counter-targets (PLAP, GAPDH)", "setting": "[2]", "result": "> 2,000 fold"}, {"measurement": "IC50", "setting": "[2]; TNAP, read-out: IC50 (Figure 6, pyrazole series optimization)", "result": 5, "unit": "nM"}, {"measurement": "IC50", "setting": "[2]; read-out: TNAP IC50, luminescent assay", "result": 5.19, "unit": "nM"}, {"measurement": "inhibition of PLAP", "setting": "[3]; at or below 10 µM", "result": "did not show any inhibition"}, {"measurement": "inhibition of GAPDH", "setting": "[7]; at or below 10 µM", "result": "did not show any inhibition"}]}, {"smiles": "O=C(c1ccccc1)C(Sc1nnc[nH]1)c1ccccc1", "note": "(stereo not shown) [MLS-5361418]", "values": [{"measurement": "Ki", "setting": "[13]", "result": 5600, "unit": "nM"}]}, {"smiles": "Cn1cnnc1Sc1nc(Nc2ccccc2)nc(Nc2ccccc2)n1", "note": "[MLS-5804079]", "values": [{"measurement": "Ki", "setting": "[13]", "result": 6500, "unit": "nM"}]}]}
